According to ChEMBL document CHEMBL1142678, “Discovery and structure-activity relationship of quinuclidine benzamides as agonists of alpha7 nicotinic acetylcholine receptors” (J Med Chem, 2005):

Tests used:
[1] = Agonistic activity against Nicotinic acetylcholine receptor alpha-7 - 5-hydroxytryptamine 3 receptor chimera; type: functional
[2] = target: Neuronal acetylcholine receptor; alpha4/beta2 (Rattus norvegicus) (UniProt P09483+P12390); test: Inhibition of [3H]cytisine binding to Nicotinic acetylcholine receptor alpha4-beta2 from rat brain homogenates at 1 uM
[3] = target: Neuronal acetylcholine receptor subunit alpha-7 (Rattus norvegicus, UniProt Q05941); test: Inhibition of methyllycaconitine (MLA) binding to Nicotinic acetylcholine receptor alpha-7 in rat brain homogenates; type: tissue-based
[4] = target: Acetylcholine receptor; alpha1/beta1/delta/gamma (Homo sapiens, UniProt P02708+P07510+P11230+Q07001); test: Antagonistic activity against Nicotinic acetylcholine receptor alpha-1-beta-1-delta-gamma; type: functional
[5] = target: T1, Serotonin 3 (5-HT3) receptor (Rattus norvegicus, UniProt P35563+Q9JJ16); test: Inhibition of [3H]GR-65630 binding to 5-hydroxytryptamine 3 receptor from rat brain homogenates
T1 sequence (P35563 whole entry): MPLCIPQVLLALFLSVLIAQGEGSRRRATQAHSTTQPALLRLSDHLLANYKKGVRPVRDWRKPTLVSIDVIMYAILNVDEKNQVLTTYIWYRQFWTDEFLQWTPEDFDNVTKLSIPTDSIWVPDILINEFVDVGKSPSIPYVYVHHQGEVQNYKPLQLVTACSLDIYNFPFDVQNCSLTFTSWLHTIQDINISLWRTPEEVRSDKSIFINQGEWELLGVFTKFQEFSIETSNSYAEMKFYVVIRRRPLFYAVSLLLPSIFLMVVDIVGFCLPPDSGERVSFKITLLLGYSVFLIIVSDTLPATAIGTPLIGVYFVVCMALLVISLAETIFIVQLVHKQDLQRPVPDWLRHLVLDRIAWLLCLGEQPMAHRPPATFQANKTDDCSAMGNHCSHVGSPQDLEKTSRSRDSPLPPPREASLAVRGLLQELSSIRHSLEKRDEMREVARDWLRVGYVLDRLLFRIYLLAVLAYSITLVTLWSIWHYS
T1 sequence (Q9JJ16 whole entry): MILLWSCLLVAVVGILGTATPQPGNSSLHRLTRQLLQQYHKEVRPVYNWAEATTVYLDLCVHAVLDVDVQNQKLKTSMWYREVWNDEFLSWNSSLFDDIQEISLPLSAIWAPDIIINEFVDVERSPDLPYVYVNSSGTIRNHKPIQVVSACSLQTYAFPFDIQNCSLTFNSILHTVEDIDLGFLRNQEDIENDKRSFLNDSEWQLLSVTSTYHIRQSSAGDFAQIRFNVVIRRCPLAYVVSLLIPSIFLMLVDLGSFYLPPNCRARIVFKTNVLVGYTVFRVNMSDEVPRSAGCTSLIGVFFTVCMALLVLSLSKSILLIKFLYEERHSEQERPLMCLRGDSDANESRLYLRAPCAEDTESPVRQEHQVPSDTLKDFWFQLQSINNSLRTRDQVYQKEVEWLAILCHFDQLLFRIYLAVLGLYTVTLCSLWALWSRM

[6] = target: T1, Serotonin 3 (5-HT3) receptor; test: Functional antagonism of rat 5-hydroxytryptamine 3 receptor in cell-based FLIPR assay
[7] = target: Neuronal acetylcholine receptor; alpha3/beta4 (Homo sapiens, UniProt P30926+P32297); test: Antagonistic activity against Nicotinic acetylcholine receptor alpha3-beta4; type: functional
[8] = Antagonistic activity against 5-hydroxytryptamine 3 receptor; type: functional

Chain of Acetylcholine receptor; alpha1/beta1/delta/gamma (P02708 whole entry): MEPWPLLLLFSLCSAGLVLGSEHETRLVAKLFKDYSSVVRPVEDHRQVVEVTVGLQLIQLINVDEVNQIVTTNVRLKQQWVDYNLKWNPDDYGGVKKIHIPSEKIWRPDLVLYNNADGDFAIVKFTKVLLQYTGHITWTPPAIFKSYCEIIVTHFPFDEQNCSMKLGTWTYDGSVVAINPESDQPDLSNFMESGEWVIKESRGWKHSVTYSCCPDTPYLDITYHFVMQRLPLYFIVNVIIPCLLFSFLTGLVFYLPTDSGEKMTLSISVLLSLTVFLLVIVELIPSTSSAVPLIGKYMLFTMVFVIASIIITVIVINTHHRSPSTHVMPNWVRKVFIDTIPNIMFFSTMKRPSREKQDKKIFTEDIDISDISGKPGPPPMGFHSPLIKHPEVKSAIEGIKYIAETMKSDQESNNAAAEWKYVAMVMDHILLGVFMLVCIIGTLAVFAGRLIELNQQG
Chain of Acetylcholine receptor; alpha1/beta1/delta/gamma (P07510 whole entry): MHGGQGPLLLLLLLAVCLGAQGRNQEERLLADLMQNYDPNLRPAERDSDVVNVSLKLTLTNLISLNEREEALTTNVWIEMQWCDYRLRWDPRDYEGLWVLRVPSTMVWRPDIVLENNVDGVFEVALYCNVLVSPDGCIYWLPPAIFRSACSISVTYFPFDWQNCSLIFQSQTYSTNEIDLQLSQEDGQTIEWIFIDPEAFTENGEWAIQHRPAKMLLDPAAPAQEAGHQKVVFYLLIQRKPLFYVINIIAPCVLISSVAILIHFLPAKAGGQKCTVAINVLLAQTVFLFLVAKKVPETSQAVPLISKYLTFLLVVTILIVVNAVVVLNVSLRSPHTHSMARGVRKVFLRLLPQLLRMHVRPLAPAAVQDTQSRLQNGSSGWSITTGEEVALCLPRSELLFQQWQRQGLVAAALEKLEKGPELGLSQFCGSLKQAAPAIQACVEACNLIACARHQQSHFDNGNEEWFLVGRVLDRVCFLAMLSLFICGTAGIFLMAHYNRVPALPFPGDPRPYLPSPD
Chain of Acetylcholine receptor; alpha1/beta1/delta/gamma (P11230 whole entry): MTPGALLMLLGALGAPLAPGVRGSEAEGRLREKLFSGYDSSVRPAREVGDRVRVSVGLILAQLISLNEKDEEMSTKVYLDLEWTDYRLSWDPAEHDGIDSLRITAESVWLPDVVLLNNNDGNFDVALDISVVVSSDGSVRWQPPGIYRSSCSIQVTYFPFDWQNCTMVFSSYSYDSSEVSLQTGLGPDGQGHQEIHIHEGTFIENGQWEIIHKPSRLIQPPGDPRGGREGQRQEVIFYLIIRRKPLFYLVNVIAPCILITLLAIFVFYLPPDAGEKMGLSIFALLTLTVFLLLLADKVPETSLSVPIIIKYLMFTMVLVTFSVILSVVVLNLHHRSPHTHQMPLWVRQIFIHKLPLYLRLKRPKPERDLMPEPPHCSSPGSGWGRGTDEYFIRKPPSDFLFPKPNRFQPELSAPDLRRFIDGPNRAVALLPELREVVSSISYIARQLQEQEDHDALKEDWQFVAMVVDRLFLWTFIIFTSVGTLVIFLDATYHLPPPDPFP
Chain of Acetylcholine receptor; alpha1/beta1/delta/gamma (Q07001 whole entry): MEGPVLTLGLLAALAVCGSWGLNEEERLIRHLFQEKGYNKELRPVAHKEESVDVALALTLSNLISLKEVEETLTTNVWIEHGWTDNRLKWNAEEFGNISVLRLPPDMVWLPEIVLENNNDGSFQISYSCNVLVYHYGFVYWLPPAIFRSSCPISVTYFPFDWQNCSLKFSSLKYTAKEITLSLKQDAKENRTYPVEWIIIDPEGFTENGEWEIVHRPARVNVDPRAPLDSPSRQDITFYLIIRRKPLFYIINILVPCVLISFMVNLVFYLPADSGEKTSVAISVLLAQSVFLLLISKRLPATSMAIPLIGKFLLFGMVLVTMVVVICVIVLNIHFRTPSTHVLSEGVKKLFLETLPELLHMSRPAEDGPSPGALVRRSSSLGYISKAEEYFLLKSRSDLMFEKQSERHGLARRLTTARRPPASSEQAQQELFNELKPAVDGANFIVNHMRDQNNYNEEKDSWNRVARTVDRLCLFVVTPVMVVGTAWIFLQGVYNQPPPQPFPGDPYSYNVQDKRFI
Chain of Neuronal acetylcholine receptor subunit alpha-7 (Q05941 whole entry): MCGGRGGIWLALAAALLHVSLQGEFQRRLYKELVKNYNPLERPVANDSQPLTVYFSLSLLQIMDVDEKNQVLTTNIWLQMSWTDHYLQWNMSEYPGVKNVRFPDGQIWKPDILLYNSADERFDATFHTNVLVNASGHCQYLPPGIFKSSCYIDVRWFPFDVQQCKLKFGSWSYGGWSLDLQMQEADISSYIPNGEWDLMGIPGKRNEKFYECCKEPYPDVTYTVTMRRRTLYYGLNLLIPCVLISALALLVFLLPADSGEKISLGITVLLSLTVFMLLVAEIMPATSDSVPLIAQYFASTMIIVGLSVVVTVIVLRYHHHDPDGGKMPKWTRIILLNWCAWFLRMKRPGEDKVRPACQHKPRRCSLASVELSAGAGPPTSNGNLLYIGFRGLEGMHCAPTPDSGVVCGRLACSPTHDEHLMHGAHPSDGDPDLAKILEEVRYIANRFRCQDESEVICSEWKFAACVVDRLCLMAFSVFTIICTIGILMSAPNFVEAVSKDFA
Chain of Neuronal acetylcholine receptor; alpha3/beta4 (P30926 whole entry): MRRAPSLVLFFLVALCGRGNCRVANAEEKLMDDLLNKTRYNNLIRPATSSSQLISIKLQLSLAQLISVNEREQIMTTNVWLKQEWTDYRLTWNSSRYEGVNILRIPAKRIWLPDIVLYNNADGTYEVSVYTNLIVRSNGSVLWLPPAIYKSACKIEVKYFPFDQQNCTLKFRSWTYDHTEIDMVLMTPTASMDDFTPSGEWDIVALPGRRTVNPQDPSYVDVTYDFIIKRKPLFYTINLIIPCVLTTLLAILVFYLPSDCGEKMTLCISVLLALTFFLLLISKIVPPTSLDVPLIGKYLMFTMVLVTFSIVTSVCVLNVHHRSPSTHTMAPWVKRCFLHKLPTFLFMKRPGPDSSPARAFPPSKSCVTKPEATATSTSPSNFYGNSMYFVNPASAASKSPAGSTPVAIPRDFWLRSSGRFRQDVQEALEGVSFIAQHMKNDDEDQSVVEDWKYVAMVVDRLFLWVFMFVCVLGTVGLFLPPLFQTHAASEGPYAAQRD
Chain of Neuronal acetylcholine receptor; alpha3/beta4 (P32297 whole entry): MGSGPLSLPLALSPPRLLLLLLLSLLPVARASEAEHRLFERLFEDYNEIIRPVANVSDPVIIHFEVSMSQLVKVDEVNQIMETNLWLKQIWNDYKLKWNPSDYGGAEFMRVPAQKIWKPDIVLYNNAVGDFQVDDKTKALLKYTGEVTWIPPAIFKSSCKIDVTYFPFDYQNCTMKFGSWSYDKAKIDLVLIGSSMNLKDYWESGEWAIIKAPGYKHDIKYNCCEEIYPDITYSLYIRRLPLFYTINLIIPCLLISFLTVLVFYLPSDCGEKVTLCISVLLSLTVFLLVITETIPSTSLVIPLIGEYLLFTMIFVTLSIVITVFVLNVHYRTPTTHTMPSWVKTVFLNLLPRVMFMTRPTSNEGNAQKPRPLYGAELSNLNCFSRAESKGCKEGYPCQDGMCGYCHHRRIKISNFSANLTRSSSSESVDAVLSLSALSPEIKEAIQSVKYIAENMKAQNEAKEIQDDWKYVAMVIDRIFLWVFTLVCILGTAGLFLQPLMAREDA

Structure (SMILES) | EC50 [1] [nM] | other results
O=C(N[C@H]1CN2CCC1CC2)c1ccc(I)cc1 | 494 | –
O=C(N[C@H]1CN2CCC1CC2)c1ccc(Cl)cc1 [listing 1 of 2 here] | – | inhibition [2]: 14%
CC(=O)Nc1ccc(C(=O)N[C@H]2CN3CCC2CC3)cc1 | > 100000 | –
COc1cccc(C(=O)N[C@H]2CN3CCC2CC3)c1 | 2200 | –
O=C(N[C@H]1CN2CCC1CC2)c1cccc(F)c1 | 3300 | –
O=C(N[C@H]1CN2CCC1CC2)c1ccc(OCc2ccccc2)cc1 | > 100000 | –
COc1ccc(C(=O)N[C@H]2CN3CCC2CC3)cc1 | 360 | –
O=C(N[C@H]1CN2CCC1CC2)c1ccc(Cl)cc1 [listing 2 of 2 here] | 154 | Ki [3]: 27 nM; IC50 [4]: ≥ 60000 nM; Ki [5]: 1660 nM; IC50 [6]: 4540 nM; IC50 [7]: ≥ 60000 nM
O=C(N[C@H]1CN2CCC1CC2)c1ccc(SCc2ccccc2)cc1 | 100000 | –
O=C(N[C@H]1CN2CCC1CC2)c1cc(Cl)cc2c1OCC2 | – | Ki [8]: 1 nM
O=C(N[C@H]1CN2CCC1CC2)c1ccc(Br)cc1 | 206 | –
CC(=O)c1ccc(C(=O)N[C@H]2CN3CCC2CC3)cc1 | 30000 | –
O=C(N[C@H]1CN2CCC1CC2)c1ccc(F)cc1 | 506 | –
O=C(N[C@H]1CN2CCC1CC2)c1ccc(C(F)(F)F)cc1 | > 100000 | –
CN(C)c1ccc(C(=O)N[C@H]2CN3CCC2CC3)cc1 | 30000 | –
Cc1ccc(C(=O)N[C@H]2CN3CCC2CC3)cc1 | 324 | –
CCCc1ccc(C(=O)N[C@H]2CN3CCC2CC3)cc1 | > 100000 | –
O=C(N[C@H]1CN2CCC1CC2)c1ccccc1 | 1900 | –
CC(C)c1ccc(C(=O)N[C@H]2CN3CCC2CC3)cc1 | > 100000 | –
O=C(N[C@H]1CN2CCC1CC2)c1ccc([N+](=O)[O-])cc1 | 1000 | –
CCc1ccc(C(=O)N[C@H]2CN3CCC2CC3)cc1 | 3760 | –
O=C(N[C@H]1CN2CCC1CC2)c1ccc(Cl)cc1 [PNU-282987] | 128 | –
COc1ccccc1C(=O)N[C@H]1CN2CCC1CC2 | > 100000 | –
CS(=O)(=O)c1ccc(C(=O)N[C@H]2CN3CCC2CC3)cc1 | > 100000 | –
O=C(N[C@H]1CN2CCC1CC2)c1cccc(Cl)c1 | 1500 | –
O=C(N[C@H]1CN2CCC1CC2)c1ccccc1F | 16700 | –
CSc1ccc(C(=O)N[C@H]2CN3CCC2CC3)cc1 | 164 | –
